The values below come from PMC6325233, “A Novel Actin Binding Drug with In Vivo Efficacy” (Antimicrobial Agents and Chemotherapy, 2018).

For experiment [1], the target named is T1, rabbit skeletal muscle F-actin (Oryctolagus cuniculus, UniProt P68135).
T1 construct: Purified rabbit skeletal muscle filamentous actin (catalog number AKF99); purchased Cytoskeleton, Inc. AKF99; host or cells: rabbit skeletal muscle (tissue-purified)
The experiment is described as follows: Cosedimentation assay. Type of experiment: binding. The conditions noted are these: F-actin 200 nM, Langmuir fit. The protocol: Purified rabbit skeletal muscle filamentous actin (catalog number AKF99) and G-actin (catalog number AKL95) were purchased from Cytoskeleton, Inc. Actin was reconstituted in Milli-Q water to achieve a stock concentration of 0.4 mg/ml in a buffer that consisted of 5 mM Tris-HCl (pH 8.0), 0.2 mM CaCl2, 0.2 mM ATP, 2 mM MgCl2, and 5% (wt/vol) sucrose as directed by the supplier. This solution was stored at −80°C in 50-μl aliquots until use. Immediately before use, each aliquot was thawed by placing it in a 37°C water bath for 5 min and then at room temperature. For all studies, 24 μg of F- or G-actin was used with 8 μg alkyne-OF. F-actin filaments were reacted with native occidiofungin for 15 min at room temperature at molar ratios of 1:10 (24 μg actin to 8 μg native occidiofungin) and 1:5 (24 μg actin to 4 μg native occidiofungin). As per the manufacturer’s instructions, Acti-stain 670 phalloidin (Cytoskeleton, Inc.) was used as a control in an in vitro actin filament binding study. Actin filaments treated with DMSO (solvent blank negative control) were stained and observed for comparison. […]
The reaction buffer for F-actin (200 nM) and occidiofungin in the cosedimentation study consisted of 5 mM Tris-HCl (pH 8.0), 0.2 mM ATP, and 2 mM MgCl2. […] A TSQ Quantum access triple quadrupole mass spectrometer was used to quantify the amount of occidiofungin within each sample. […]

The test system of another experiment is S. cerevisiae Δscp1. As to the kind of experiment: MIC against deletion mutant. It counts as cell-based. To be noted: Actin cross linker. On the procedure:
(§1) Occidiofungin was purified from a liquid culture of Burkholderia contaminans MS14 as previously described ([21]). MIC susceptibility testing was performed according to the CLSI M27-A3 and M38-A2 standards for the susceptibility testing of yeasts and filamentous fungi, respectively. S. cerevisiae deletion mutants were obtained from the commercially available BY4741 deletion library (Thermo Scientific).

A further experiment deals with S. cerevisiae Δmyo4. The experiment is described as follows: MIC against deletion mutant. Type of experiment: cell-based. To be noted: Actin based motor activity, Type V motor. On the procedure:
as §1

A further experiment relates to S. cerevisiae Δsac7. As to the kind of experiment: MIC against deletion mutant. To be noted: Rho1-GAP. Type of experiment: cell-based. On the procedure: as §1
For a further experiment, the system named is S. cerevisiae Δbni1. As to the kind of experiment: MIC against deletion mutant. It counts as cell-based. To be noted: Actin nucleation, Formin. The protocol: as §1
Another experiment concerns S. cerevisiae Δsac6. As to the kind of experiment: MIC against deletion mutant. It counts as cell-based. To be noted: Actin bundling, Fimbrin. The protocol: as §1
The next experiment has as its system S. cerevisiae Δrom1. The experiment is described as follows: MIC against deletion mutant. Type of experiment: cell-based. The conditions noted are these: Rho1-GEF. The protocol:
as §1

With occidiofungin, the “saturation of binding, stoichiometry ligand : actin monomer” value in experiment [1] turned out to be 24. In addition, the Kd (usually the constant that tells how readily two partners part at equilibrium) in experiment [1] (occidiofungin 25 to 25,600 nM, pH 8.0, room temperature, 30 min, LC-MS quantification, read-out: estimated macroscopic dissociation constant (Kd)) was 1000 nM. The MIC with S. cerevisiae Δscp1, in the experiment with S. cerevisiae Δmyo4, against S. cerevisiae Δsac7, against S. cerevisiae Δbni1, with S. cerevisiae Δsac6 and with S. cerevisiae Δrom1 was 0.25 µg/mL in each case.
